Results published in patent US7582786B2, “Synthetic catalytic free radical scavengers useful as antioxidants for prevention and therapy of disease” (Eukarion Inc., priority 1996, dated 2009).

How the values were obtained:
brain homogenates = assay: Iron-induced lipid peroxidation in brain homogenates (MDA); type: biochemical, rat
Experimental: Lipid peroxidation was induced by incubating a mixture consisting of 0.25 ml homogenate, 0.25 ml ASCF with test compounds, and 10 μM FeCl2 for 1 hr at 35° C. under an atmosphere equilibrated with O2:CO2(95:5). Following the incubation, 0.1 ml of the sample was extracted with trichloroacetic acid and analyzed for thiobarbituric acid reactive material as described previously, using authentic malonyldialdehyde (MDA) as a standard.

[1] = test system: Human dermal fibroblasts (HF cells); assay: Cell protection assay, tert-butylhydroperoxide (t-BHP) toxicity, XTT; type: cell-based
Experimental: Human dermal fibroblasts (HF cells) were obtained from the American type tissue Culture Collection at passage 1 and cultured and propagated in a medium (HF medium) consisting of Dulbecco's Modified Eagle's Medium with 4.5 g/l D-glucose, 10% calf serum 4 mM glutamine, 50 units/ml penicillin, and 50 μg/ml streptomycin in a 37° C. humidified incubator equilibrated with 5% CO2. Cells were used at passages 5 or 6 for experiments. For cell protection assays, HF cells were seeded at a density of about 15,000 cells per cm2 onto 96-well culture plates and allowed to grow to confluence. To assess protection tert-butylhydroperoxide (t-BHP) toxicity, confluent cell layers were first treated with the indicated concentrations of test compounds dissolved in HF medium for 18 hr. The medium was then replaced with fresh medium containing test compounds and 0.5 mM tert-butylhydroperoxide (t-BHP) and cells were incubated for another 18 hr. The medium was then removed and replaced with fresh HF medium (100 μl per well) without test compounds or t-BHP. Fifty μl of XTT reagent (Boeringer Mannheim, Inc.), prepared as described by the manufacturer, was then added to each well and the plates returned to the incubator. After 2 hr., the absorbance at 490 nm was measured in a BioRad (Richmond, Calif.) Model 3550 plate-reader, using a reference wavelength of 655 nm. Control cells that had not been exposed to test compounds or toxic agents were included among the samples treated with XTT reagent. Absorbance measurements for blank wells, containing HF medium and XTT reagent but no cells, were also determined. To analyze protection from glucose/glucose oxidase toxicity, confluent cell layers were incubated with HF medium containing glucose oxidase (0.019 units/ml) along with test compounds, as indicated, for 18 hr in the tissue culture incubator. Fresh HF medium was then added and cell viability assessed using the XTT reagent as described above. For both these models, concentrations of toxic agents were selected that were reproducibly completely lethal. Cytotoxicity assessments were routinely confirmed by visual inspection of the cell layers prior to addition of the XTT reagent.

[2] = Peroxidase activity, H2O2-dependent oxidation of ABTS (Example 2); type: biochemical; details: for Peroxidase rate: 10 μM salen manganese complex, 0.2 mM H2O2; for Peroxidase: relative to C7 (C7 = 100)
Procedure, shortened: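 ABTS oxidation by salen manganese complex (10 μM) with 0.2 mM H2O2 in 50 mM sodium phosphate pH 8.1 (or pH 6.0/7.1 where indicated), 0.9% NaCl, 0.5 mM ABTS, 27±0.2 °C. Oxidized ABTS read spectrophotometrically at 740 or 500 nm and quantified from Δε740 20,300 or Δε500 3400 M^−1cm^−1.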

[3] = Peroxidase activity with t-BHP as substrate, ABTS oxidation; type: biochemical
Experimental: Peroxidase activity was assayed by monitoring the hydrogen peroxide-dependent oxidation of 2,2′-azino-bis(3-ethylbenzthiazoline-6) sulfonic acid (ABTS) spectrophotometrically. Standard assay mixtures consisted of 50 mM sodium phosphate, pH 8.1, 0.9% sodium chloride, 0.5 mM ABTS, and H2O2 and salen manganese complex as indicated. Where indicated, 50 mM sodium phosphate buffers of pH 6.0 or pH 7.1 were substituted. Assays were conducted at 27±0.2° C. ABTS oxidation was monitored at 740 or 500 nm to eliminate interference by the salen manganese complexes, many of which absorb in the vicinity of the λmax of oxidized ABTS, and to avoid absorbance values that exceeded the linear range of the spectrophotometer. The amount of oxidized ABTS was estimated using an Δε740 of 20,300 M^−1cm^−1 or an Δε500 of 3400 M^−1cm^−1 calculated based upon the published molar extinction coefficient oat 405 nm (36,800).
(In comparison, horseradish peroxidase utilized t-BHP with an ABTS oxidation rate that was about 5.4% of the rate with H2O2).

[4] = Catalase activity, conversion of H2O2 to oxygen, polarographic oxygen electrode (Example 2); type: biochemical
Procedure, shortened: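 Clark-type oxygen electrode at 25 °C in 50 mM sodium phosphate pH 8.1, 0.9% NaCl, with 10 μM salen-manganese complex and 10 mM H2O2. Initial rates from slope of first ~5 s, corrected for H2O2-alone rate; endpoint O2 as maximal minus pre-substrate baseline.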

[5] = 10 μM salen manganese complex, 10 mM H2O2

Question: Which “MDA levels, percent of control” value (brain homogenates; 1 μM) does the source give for `[Cl][Mn]1[O]c2ccccc2C=NCCN=Cc2ccccc2[O]1` [Compound C7] here?
Answer: The value was 110%.

Question: What about the “MDA levels, percent of control” value (brain homogenates; 5 μM) of the same compound?
Answer: Its value is 84%.

Question: What about the “MDA levels, percent of control” value (brain homogenates; 10 μM) of the same compound?
Answer: Its value is 22%.

Question: And the “MDA levels, percent of control” value (brain homogenates; 25 μM)?
Answer: Its value is 4%.

Question: What about the “Cell viability, absorbance at 490 nm uncorrected for blank” value (“Cell viability, absorbance” below) ([1]; 2.5 μM, t-BHP 0.5 mM) of the same compound?
Answer: Its value is 0.28 ± 0.01.

Question: What about the “Cell viability, absorbance” value ([1]; 5 μM, t-BHP 0.5 mM) of the same compound?
Answer: Its value is 0.68 ± 0.31.

Question: What about the “Cell viability, absorbance” value ([1]; 10 μM, t-BHP 0.5 mM) of the same compound?
Answer: The value was 1.45 ± 0.05.

Question: And the “Cell viability, absorbance” value ([1]; 20 μM, t-BHP 0.5 mM)?
Answer: The value was 1.44 ± 0.05.

Question: What about the “Cell viability, absorbance” value ([1]; 40 μM, t-BHP 0.5 mM) of the same compound?
Answer: The value was 1.42 ± 0.03.

Question: And the “synergistic toxicity with t-BHP” value ([1]; 80 μM)?
Answer: Its value is “possible synergistic toxicity”.

Question: And the “Cell viability, absorbance” value ([1]; 80 μM, t-BHP 0.5 mM)?
Answer: The value was 0.77 ± 0.41.

Question: What about the “peroxidase activity (in words)” value [2] of the same compound?
Answer: Its value is “exhibits peroxidase activity”.

Question: What about the ABTS oxidized ([2]; 10 μM C7, 1 mM H2O2, pH 8.1) of the same compound?
Answer: Its ABTS oxidized is “up to 88 μM”.

Question: And the peroxidase turnovers ([2]; 10 μM C7, 1 mM H2O2, pH 8.1)?
Answer: Its peroxidase turnovers is “over 8 turnovers”.

Question: And the Peroxidase rate [2]?
Answer: The Peroxidase rate was 20.0 ± 0.5 μM ABTS oxidized/min.

Question: And the Peroxidase [2]?
Answer: The Peroxidase was 100.

Question: What about the “ABTS oxidation rate with t-BHP, percent of rate with H2O2” value ([3]; 1 mM t-BHP) of the same compound?
Answer: The value was “about 0.5%”.

Question: What about the “catalase activity (in words)” value [4] of the same compound?
Answer: The value was “exhibits catalase activity”.

Question: What about the catalase turnovers completed ([4]; 10 μM C7, ~1 mM H2O2) of the same compound?
Answer: Its catalase turnovers completed is “no more than a single turnover”.

Question: What about the Catalase rate [4, 5] of the same compound?
Answer: The Catalase rate was 148.6 ± 33.5 μM O2/min.

Question: What about the Endpoint [4, 5] of the same compound?
Answer: Its Endpoint is 32.3 ± 1.2 maximal μM O2.

Question: What about the Catalase endpt. ([4]; relative to C7 (C7 = 100)) of the same compound?
Answer: The Catalase endpt. was 100.

Question: What about the Catalase rate ([4]; relative to C7 (C7 = 100)) of the same compound?
Answer: The Catalase rate was 100.

Question: With `COc1cccc2c1[O][Mn]([O]C(C)=O)[O]c1c(cccc1OC)C=NCCN=C2` [Compound C32] as the compound, how does the “MDA levels, percent of control” value (brain homogenates; 1 μM) read?
Answer: Its value is 104%.

Question: And the “MDA levels, percent of control” value (brain homogenates; 5 μM)?
Answer: The value was 35%.

Question: And the “MDA levels, percent of control” value (brain homogenates; 10 μM)?
Answer: Its value is 13%.

Question: What about the “MDA levels, percent of control” value (brain homogenates; 25 μM) of the same compound?
Answer: Its value is 8%.

Question: And the “Cell viability, absorbance” value ([1]; 2.5 μM, t-BHP 0.5 mM)?
Answer: The value was 0.29 ± 0.01.

Question: And the “Cell viability, absorbance” value ([1]; 5 μM, t-BHP 0.5 mM)?
Answer: Its value is 0.28 ± 0.01.

Question: And the “Cell viability, absorbance” value ([1]; 10 μM, t-BHP 0.5 mM)?
Answer: Its value is 1.35 ± 0.05.

Question: And the “Cell viability, absorbance” value ([1]; 20 μM, t-BHP 0.5 mM)?
Answer: The value was 1.43 ± 0.05.

Question: And the “Cell viability, absorbance” value ([1]; 40 μM, t-BHP 0.5 mM)?
Answer: The value was 1.48 ± 0.06.

Question: What about the “Cell viability, absorbance” value ([1]; 80 μM, t-BHP 0.5 mM) of the same compound?
Answer: Its value is 1.40 ± 0.07.

Question: What about the “peroxidase activity (in words)” value [2] of the same compound?
Answer: The value was “fastest peroxidases”.

Question: What about the Peroxidase rate [2] of the same compound?
Answer: Its Peroxidase rate is 34.2 ± 1.5 μM ABTS oxidized/min.

Question: And the Peroxidase [2]?
Answer: The Peroxidase was 203.

Question: What about the “peroxidase rate with t-BHP relative to C7” value [3] of the same compound?
Answer: Its value is ~3 fold.

Question: What about the “catalase activity (in words)” value [4] of the same compound?
Answer: The value was “about twice as fast as C7”.

Question: And the “turnovers before the catalase reaction ceased” value ([4]; 10 μM complex, 10 mM H2O2)?
Answer: Its value is “about 16 turnovers”.

Question: And the Catalase rate [4, 5]?
Answer: Its Catalase rate is 295.0 ± 31.9 μM O2/min.

Question: What about the Endpoint [4, 5] of the same compound?
Answer: The Endpoint was 90.1 ± 2.6 maximal μM O2.

Question: And the Catalase endpt. ([4]; relative to C7 (C7 = 100))?
Answer: Its Catalase endpt. is 319.

Question: And the Catalase rate ([4]; relative to C7 (C7 = 100))?
Answer: Its Catalase rate is 188.

Question: For `COc1cc(OC)c2c(c1)[O][Mn]([O]C(C)=O)[O]c1cc(OC)cc(OC)c1C=NCCN=C2` [Compound C35], which “inhibition of lipid peroxidation (in words)” value (brain homogenates) is on record?
Answer: Its value is “very potent”.

Question: What about the “MDA levels, percent of control” value (brain homogenates; 1 μM) of the same compound?
Answer: The value was 82%.

Question: What about the “MDA levels, percent of control” value (brain homogenates; 5 μM) of the same compound?
Answer: Its value is 5%.

Question: What about the “MDA levels, percent of control” value (brain homogenates; 10 μM) of the same compound?
Answer: The value was 4%.

Question: And the “MDA levels, percent of control” value (brain homogenates; 25 μM)?
Answer: The value was 3%.

Question: And the “Cell viability, absorbance” value ([1]; 2.5 μM, t-BHP 0.5 mM)?
Answer: The value was 0.27 ± 0.01.

Question: And the “Cell viability, absorbance” value ([1]; 5 μM, t-BHP 0.5 mM)?
Answer: Its value is 0.27 ± 0.01.

Question: What about the “Cell viability, absorbance” value ([1]; 10 μM, t-BHP 0.5 mM) of the same compound?
Answer: Its value is 0.29 ± 0.03.

Question: What about the “Cell viability, absorbance” value ([1]; 20 μM, t-BHP 0.5 mM) of the same compound?
Answer: The value was 1.40 ± 0.05.

Question: What about the “Cell viability, absorbance” value ([1]; 40 μM, t-BHP 0.5 mM) of the same compound?
Answer: Its value is 1.52 ± 0.07.

Question: What about the “toxicity of compound alone” value ([1]; 80 μM, without t-BHP) of the same compound?
Answer: The value was “equivalent toxicity with or without t-BHP”.

Question: What about the “Cell viability, absorbance” value ([1]; 80 μM, t-BHP 0.5 mM) of the same compound?
Answer: Its value is 0.57 ± 0.01.

Question: What about the “concentration at which protection was observed” value ([1]; t-BHP 0.5 mM) of the same compound?
Answer: Its value is ≥ 20 µM.

Question: And the “peroxidase activity (in words)” value [2]?
Answer: The value was “undetectable activity”.

Question: And the Peroxidase rate [2]?
Answer: Its Peroxidase rate is −0.1 ± 0.1 μM ABTS oxidized/min.

Question: And the Peroxidase [2]?
Answer: Its Peroxidase is 0.

Question: What about the “peroxidase activity toward t-BHP, percent of C7” value [3] of the same compound?
Answer: Its value is “less than 2%”.

Question: What about the “catalase activity (in words)” value [4] of the same compound?
Answer: The value was “much lower catalase activity”.

Question: What about the Catalase rate [4, 5] of the same compound?
Answer: The Catalase rate was 36.0 ± 8.0 μM O2/min.

Question: And the Endpoint [4, 5]?
Answer: The Endpoint was 10.5 ± 3.0 maximal μM O2.

Question: What about the Catalase endpt. ([4]; relative to C7 (C7 = 100)) of the same compound?
Answer: The Catalase endpt. was 41.

Question: And the Catalase rate ([4]; relative to C7 (C7 = 100))?
Answer: The Catalase rate was 25.

Question: With `COc1cccc2c1[O][Mn]([Cl])[O]c1c(cccc1OC)C=NCCN=C2` [Compound C40] as the compound, how does the “peroxidase activity (in words)” value [2] read?
Answer: Its value is “fastest peroxidases”.

Question: And the Peroxidase rate [2]?
Answer: Its Peroxidase rate is 32.9 ± 0.2 μM ABTS oxidized/min.

Question: What about the Peroxidase [2] of the same compound?
Answer: Its Peroxidase is 203.

Question: What about the “catalase activity (in words)” value [4] of the same compound?
Answer: Its value is “higher rate”.

Question: What about the Catalase endpt. ([4]; relative to C7 (C7 = 100)) of the same compound?
Answer: Its Catalase endpt. is 272.

Question: What about the Catalase rate ([4]; relative to C7 (C7 = 100)) of the same compound?
Answer: Its Catalase rate is 155.
